Test results as given in patent publication US4599325A, “Substituted tyrosyl alanine dipeptide amides” (G. D. Searle & Co., priority 1985, dated 1986).
Counter-ions that a name gives are not always drawn.

Legend:
mice [1] = test: Writhing assay (phenylbenzoquinone); assay type: in vivo, mouse; conditions: for ED50: Mus musculus; for Writhing Mouse Oral (ED50) / Writhing Mouse Subc. (ED50): Table 1; for Writhing Mouse Subc. (ED50): subcutaneous
Description: Male Charles River albino mice (CD-1/HAM/1LR) weighing between 20 and 30 grams were used. Thirty minutes after subcutaneous or intragastric administration of the test compound (0.1 ml/10 gram body weight), 0.025% (w/v) phenylbenzoquinone was injected intraperitoneally (0.1 ml/10 gram body weight). Five minutes later, each mouse was placed in a large glass beaker and the number of writhes that occurred in the subsequent ten minutes is counted. A writhe consisted of dorsoflexion of the back, extension of the hindlimbs, and strong contraction of the abdominal musculature. The test compound was considered to have produced analgesia in a mouse if the number of writhes elicited by phenylbenzoquinone was equal to or less than one-half the median number of writhes recorded for the saline-treated group that day. The results were expressed as the number of mice (out of a possible ten) in which the test compound produced analgesia. The test compound was rated active if writhing was inhibited (as described) in 5 of 10 mice.
The receptor binding and biological properties of the following compounds of this invention are illustrated in Tables 1 and 2 utilizing the previously described opiate binding, hot plate, tail flick, writhing assay, cholera test or hypertensive test. The standard screening dose for the hot plate test of Table 1 was 10 mg/kg i.v. and for the writhing assay was 10 mg/kg s.c. and p.o.

mice [2] = test: Combined tail flick and hot plate tests: tail flick; assay type: in vivo, mouse; conditions: for ED50: Mus musculus, combined tail flick/hot plate; for activity in tail flick test: oral and subcutaneous, prior art at doses as great as 100 mg/kg p.o. and 50 mg/kg s.c.
Description: Male albino inbred mice supplied by Charles River (CD-1/HAM/1LR) weighing between 20 and 30 grams were used. Analgesia was first measured using the tail flick test in which a high intensity beam of light was focused on the blackened tail. The interval of time between onset of the light and reflex removal of the tail was defined as the tail flick latency. The average of two successive determinations was recorded. Following tail flick determination, the animals were immediately placed on a 55° C. copper hot plate to which they were restricted by an inverted 600 ml glass beaker. Hot plate latency was defined as the interval between placement on the hot plate and a behavioral response of either a jump or a hindpaw lick. One determination was recorded. Mice not responding within 4.0 seconds on the tail flick and 20.0 seconds on the hot plate were discarded from the study. The tail flick test and the hot plate test were stopped after 12.0 and 40 seconds, respectively, had elapsed to prevent tissue damage. After determination of pre-injection baseline latencies, the test compound was dissolved in distilled water and administered either orally or subcutaneously (0.1 ml/10 gram body weight). Tail flick and hot plate latencies were measured 10, 30, 60 and 90 minutes after injection. One-way analyses of variance were used to detect any significant increase in tail flick and hot plate latencies (indicative of analgesia) as compared to latencies prior to drug adminstration, as well as to establish the dose-dependence of any effect. A linear regression method (least squares) was used to determine the line of best fit. The ED50 dose was determined to be that dose of test compound that produced one-half the maximum measurable increase in latency. This corresponded to a post-drug tail flick latency of 7.5 seconds and hot plate latency of 25 seconds. G. Keppel: Design and analysis: a researcher's handbook, New Jersey, Prentice-Hall, 1973.

opiate receptors = test: Opiate binding assay (displacement of 3H-Naloxone); parameters: species or system rat; conditions: for IC50: Table 1, 3H-Naloxone, rat brain membranes
Description: The test compounds were evaluated for their ability to displace the binding of ^3 H-Naloxone to opiate receptors isolate from rat brain. Male rats [COBS CD(SD)BR] obtained from Charles River Laboratories (Portage, MI) were sacrificed by cervical dislocation. A purified homogenate of receptor membranes was prepared from the brains according to the method described by Chang and Cuatrecasas. (K.-J. Chang and P. Cuatrecases. Multiple Opiate Receptors: Enkephalins And Morphine Bind To Receptors Of Different Specificity. J. Biol. Chem. 254, 2610-2618 (1979).) The brains were homogenized in 10 volumes of 0.32M sucrose and centrifuged twice at 6,000×g for 15 minutes. Following centrifugation of the supernatants at 40,000×g for 30 minutes, the pellets were allowed to swell, then centrifuged at 6,000 and 40,000×g. This process was repeated. The final pellet was resuspended in 2 volumes of 50 mM tris HCl (pH 7.4). The homogenate was assayed for protein content according to the method of Itzhaki and Gill. R. F. Itzhaki and D. M. Gill. A Micro-Biuret Method for Estimating Proteins. Anal. Biochem. 9, […] (1964).
The binding of the test compounds to the receptor membrane preparation was measured using a modification of the method of Pert and Snyder. C. B. Pert and S. H. Snyder. Properties of Opiate-Receptor Binding in Rat Brain. Proc. Natl. Acad. Sci. 70, 2243-2247 (1973). The receptor assay was run using 1 nM ^3 H-Naloxone and 2 ml of tissue homogenate (0.5 mg/ml protein concentration). Levorphanol (1×10^-5 M) was used as the displacer for non-specific binding. Both the displacer and the test compounds were added in 0.02 ml volumes. The assay was run in 0.05M tris HCl (pH 7.4) ±100 mM NaCl. Total assay volume was 2.03 ml.
Samples were incubated at 25° C. for 60 min., cooled on ice 5 min. and subsequently filtered over Whatman GF/C glass fiber filters with 2.4 ml washes of cold buffer. The filters were then solubilized in 1 ml of NCS at 50° C. for 1 hour. After solubilization, the pH was adjusted with 0.1 ml of glacial acetic acid, 10 ml of PCS was added and the samples were counted in a Nuclear Chicago Mark II liquid scintillation counter. This method was used for the following test compounds: Example 4, Example 5, Example 27, Example 28, Example 38, Example 39, and the prior art compound (4).
A modification of this method was used for the following test compounds: Example 16, Example 17, Example 21, Example 22, Example 24, Example 30, Example 31. In this modification, the total assay volume was adjusted to 1.0 ml. Samples were cooled on ice for 10 minutes and dried at 50° C. for 30 minutes, then 10 mls of PCS was added and the samples counted in a liquid scinitillation counter.
The IC50 values, the concentration of the test compounds which inhibited ^3 H-Naloxone specific binding to the opiate receptor by 50%, were obtained from log-probit plots of concentration-response curves. D. J. Finney. Probit Analysis. Cambridge University Press, London, 1947.

Compound | ED50 (mice [1]; po, Table 2, p.o., read-out: Writhing (ED50) p.o.) [mg/kg] | ED50 (mice [1]; sc, Table 2, s.c., read-out: Writhing (ED50) s.c.) [mg/kg] | Writhing Mouse Oral (ED50) (mice [1]; hydrochloride) [mg/kg] | Writhing Mouse Subc. (ED50) (mice [1]; hydrochloride) [mg/kg] | activity in writhing test relative to the prior art, oral (mice [1]; administered orally, more active than prior art) [times] | potency in writhing test relative to the prior art, subcutaneous (mice [1]; subcutaneous administration) | ED50 (mice [2]; po, p.o., read-out: Tail Flick (ED50) p.o.) [mg/kg] | ED50 (mice [2]; sc, s.c., read-out: Tail Flick (ED50) s.c.) [mg/kg] | activity in tail flick test (mice [2]) | IC50 (opiate receptors; hydrochloride) [nM] | affinity to the opiate receptor relative to the prior art compound (opiate receptors; greater affinity than prior art compound) | Writhing Mouse Oral (ED50) (mice [1]) [mg/kg] | Writhing Mouse Subc. (ED50) (mice [1]) [mg/kg] | Writhing (ED50) s.c. (mice [1]; Table 2, s.c.) [mg/kg] | Tail Flick, activity at stated dose s.c. (mice [2]; 50 mg/kg s.c.) | Tail Flick, activity at stated dose p.o. (mice [2]; 100 mg/kg p.o.) | IC50 (opiate receptors) [nM]
Cc1cc(O)cc(C)c1C[C@H](N)C(=O)N[C@H](C)C(=O)NCCCc1ccccc1 [Example 5, 2,6-dimethyltyrosyl-N-(3-phenylpropyl)-D-alaninamide, hydrochloride] | 0.5 | 0.5 | 0.53 | 0.52 | 6 | approximately equipotent | 115 | 35 | active | 27 | tenfold | – | – | – | – | – | –
tyrosine-D-alanine-phenylpropylamide [Prior Art, reference compound] | – | – | – | – | – | – | – | – | not active | – | – | 0.58 | 3.10 | 0.6 | Inactive | Inactive | 430
